Measurements as given in PMC11932207, “Regulating AMPA Receptors with Isoxazole-4-Carboxamide Derivatives: An Electrophysiological Study” (Journal of Xenobiotics, 2025).

The compounds below were run against T1, GluA2 (Rattus norvegicus, UniProt P19491) (assay: Whole-cell patch clamp recordings of homomeric GluA2 AMPA receptor currents and kinetics in transfected HEK293t cells). Details: 16 µM compound co-applied with agonist, HEK293t, −60 mV, pH 7.4, 22 °C, mean ± SD, n = 10.
T1 construct: expressed in transfected cells; host or cells: HEK293T (HEK293) cells, transient co-transfection with a separate EGFP vector
T1 sequence (P19491 22-883 isoform P19491-2 limits assumed): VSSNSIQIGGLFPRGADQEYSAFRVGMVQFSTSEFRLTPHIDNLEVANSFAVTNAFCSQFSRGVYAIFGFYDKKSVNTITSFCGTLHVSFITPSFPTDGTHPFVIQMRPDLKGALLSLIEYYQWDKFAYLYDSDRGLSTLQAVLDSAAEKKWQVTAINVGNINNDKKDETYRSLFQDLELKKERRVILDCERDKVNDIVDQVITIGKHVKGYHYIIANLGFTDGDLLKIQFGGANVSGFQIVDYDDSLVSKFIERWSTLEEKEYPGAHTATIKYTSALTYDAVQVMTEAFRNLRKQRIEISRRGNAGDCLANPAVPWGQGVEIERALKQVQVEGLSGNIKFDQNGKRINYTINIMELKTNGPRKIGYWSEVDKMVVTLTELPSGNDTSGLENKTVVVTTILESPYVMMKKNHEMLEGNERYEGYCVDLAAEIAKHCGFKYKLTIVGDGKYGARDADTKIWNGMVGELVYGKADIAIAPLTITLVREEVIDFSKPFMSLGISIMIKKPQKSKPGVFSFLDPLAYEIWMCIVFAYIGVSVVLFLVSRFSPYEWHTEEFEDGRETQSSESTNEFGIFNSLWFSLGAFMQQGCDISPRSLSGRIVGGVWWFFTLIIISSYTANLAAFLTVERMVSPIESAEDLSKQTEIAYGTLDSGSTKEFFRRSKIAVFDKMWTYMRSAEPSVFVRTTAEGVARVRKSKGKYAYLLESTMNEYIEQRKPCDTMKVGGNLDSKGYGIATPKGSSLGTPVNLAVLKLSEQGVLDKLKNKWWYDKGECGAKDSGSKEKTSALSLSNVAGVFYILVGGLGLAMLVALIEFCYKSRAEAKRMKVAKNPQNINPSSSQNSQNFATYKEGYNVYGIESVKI
Type: cell-based
Excerpt: (§1) The AMPA receptor subunits utilized in this study were of the flip isoform. The flip variant of the GluA2 subunit was originally provided by S. F. Heinemann (Salk Institute, La Jolla, CA, USA) in a pBlueScript plasmid. This plasmid was subsequently sub-cloned into a pRK vector to enable expression in HEK293 cells, which were sourced from Sigma, Germany. Additionally, the unedited version of GluA2 (R607Qjj, flip isoform) and enhanced green fluorescent protein (EGFP), both contained in pRK5 vectors, were generously supplied by P. H. Seeburg (Max Planck Institute for Medical Research, Heidelberg, Germany). Chemical-mediated ways induced transfection. GluA2 homomers were expressed into HEK293 cells by the co-transfection of 1 μg GluA2 plasmid with an equal amount of GFP expression vectors (1:1 ratio) into the cells. In addition, co-transfection was conducted for heteromeric GluA2/3 subunits at a ratio of 1:1.2 for optimum expression. For post-transfection experiments, cells were plated in 10% fetal calf serum and antibiotics in DMEM in Petri plates. These cultures were maintained under carefully controlled conditions—37 °C and 5% CO2 within a humidified incubator. The selection of cells for recordings was based on fluorescence intensity. Highly GFP-positive cells were identified and isolated for further analysis, ensuring precise targeting of transfected populations.
(§2) Whole-cell patch clamp recordings were performed on HEK293t cells 36–48 h after transfection. Experiments were conducted at 22 °C, maintaining a holding potential of −60 mV, using an Integrated Patch Amplifier (IPA) from Sutter Instruments (Novato, CA, USA). Data acquisition was managed with SutterPatch Software v. 1.1.1 (Sutter Instruments), employing a sampling rate of 10 kHz and setting the low-pass filter at 2 kHz. […] The external solution contained 150 mM NaCl, 2.8 mM KCl, 0.5 mM MgCl2, 2 mM CaCl2, and 10 mM HEPES, adjusted to a pH of 7.4 using NaOH. The internal pipette solution was composed of 110 mM CsF, 30 mM CsCl, 4 mM NaCl, 0.5 mM CaCl2, 10 mM trypsin-EDTA solution B (0.25%), 0.05% EDTA, and 10 mM HEPES, with the pH adjusted to 7.2 using CsOH.
(§3) A dual-barrel glass pipette (theta tube) was employed for the rapid delivery of glutamate and other solutions. The theta tube was attached to a high-speed piezoelectric solution exchange system (Automate Scientific, Berkeley, CA, USA). To assess the efficiency of solution exchange, open-tip potentials were measured by applying solutions with different ionic compositions after the patch was expelled from the pipette. The time required for a 10–90% change in the solution was generally less than […].
(§4) Data analysis was performed with Igor Pro8.04 software (Wave Metrics, Inc., Portland, OR, USA). AMPA receptor deactivation and desensitization kinetics were measured by applying 10 mM glutamate for 1 ms and 500 ms, respectively. The currents from the AMPA receptor were fitted to a double-exponential model to quantify deactivation and desensitization time constants measured from the double-exponential fits. The weighted tau (τw) is calculated as: τw = (τf × af) + (τs × as), where τf and τs are the time constants of fast and slow exponential components and af and as represent their relative amplitudes.
(§5) Data are presented as the mean ± standard deviation (SD). The total number of HEK293 cells engaged was n = 10. The experimental groups were compared to the wild type using a one-way analysis of variance (ANOVA). Statistical significance was assessed using p values: p < 0.05 (*) indicated significance, p < 0.01 (**) indicated high significance, and p < 0.001 (***) indicated very high significance. The value “ns” indicates non-significance. Concentration–response relationships were modeled using the Hill equation with the resulting combined plots via GraphPad Prism software (version 6.01, GraphPad Software). The data presented are the means from 3–4 experimental replicates. […]

Amplitude (peak whole-cell current in presence of compound) [pA] | SMILES
223±15 | COc1cc(NC(=O)c2c(-c3c(Cl)cccc3Cl)noc2C)cc(OC)c1 [CIC-3, 3-(2,6-dichlorophenyl)-N-(3,5-dimethoxyphenyl)-5-methylisoxazole-4-carboxamide]

Same assay, conditions: 16 µM compound, mean ± SD, n = 10

A/AI (amplitude ratio, glutamate alone / with compound) | SMILES
5.60±0.27 | COc1cc(NC(=O)c2c(-c3c(Cl)cccc3Cl)noc2C)cc(OC)c1 [CIC-3, 3-(2,6-dichlorophenyl)-N-(3,5-dimethoxyphenyl)-5-methylisoxazole-4-carboxamide]

Same assay, conditions: 10 mM glutamate for 1 ms, with compound, mean ± SD

t deact (weighted deactivation time constant) [ms] | SMILES
6.3 ± 0.3 | COc1cc(NC(=O)c2c(-c3c(Cl)cccc3Cl)noc2C)cc(OC)c1 [CIC-3, 3-(2,6-dichlorophenyl)-N-(3,5-dimethoxyphenyl)-5-methylisoxazole-4-carboxamide]

Same assay, conditions: 10 mM glutamate for 500 ms, with compound, mean ± SD

SMILES | t des (weighted desensitization time constant) [ms]
COc1cc(NC(=O)c2c(-c3c(Cl)cccc3Cl)noc2C)cc(OC)c1 [CIC-3, 3-(2,6-dichlorophenyl)-N-(3,5-dimethoxyphenyl)-5-methylisoxazole-4-carboxamide] | 0.9 ± 0.1

Same assay, conditions: concentration–response fit, read-out: Log IC50 (converted)

IC50 [µM] | SMILES
4.79 | COc1cc(NC(=O)c2c(-c3c(Cl)cccc3Cl)noc2C)cc(OC)c1 [CIC-3, 3-(2,6-dichlorophenyl)-N-(3,5-dimethoxyphenyl)-5-methylisoxazole-4-carboxamide]

Same assay, conditions: glutamate alone after the compound, mean ± SD, n = 10

Amplitude, applying glutamate alone after compound [pA] | SMILES
1216±119 | COc1cc(NC(=O)c2c(-c3c(Cl)cccc3Cl)noc2C)cc(OC)c1 [CIC-3, 3-(2,6-dichlorophenyl)-N-(3,5-dimethoxyphenyl)-5-methylisoxazole-4-carboxamide]

Same assay, conditions: inhibition of whole-cell peak current, concentration–response, Hill fit, read-out: IC50

IC50 [µM] | SMILES
4.82 | COc1cc(NC(=O)c2c(-c3c(Cl)cccc3Cl)noc2C)cc(OC)c1 [CIC-3, 3-(2,6-dichlorophenyl)-N-(3,5-dimethoxyphenyl)-5-methylisoxazole-4-carboxamide]

Same assay, conditions: versus glutamate alone, one-way ANOVA

SMILES | Effect on deactivation kinetics (τdeac), in words | Effect on desensitization kinetics (τdes), in words
COc1cc(NC(=O)c2c(-c3c(Cl)cccc3Cl)noc2C)cc(OC)c1 [CIC-3, 3-(2,6-dichlorophenyl)-N-(3,5-dimethoxyphenyl)-5-methylisoxazole-4-carboxamide] | statistically significant prolongation of τdeac | significantly accelerated desensitization

These compounds were tested against T2, GluA2/3 (UniProt P19491+P42263) (assay: Whole-cell patch clamp recordings of heteromeric GluA2/3 AMPA receptor currents and kinetics in transfected HEK293t cells). Details: 16 µM compound co-applied with agonist, HEK293t, −60 mV, pH 7.4, 22 °C, mean ± SD, n = 10.
T2 construct: expressed in transfected cells; host or cells: HEK293T (HEK293) cells, transient co-transfection
T2 sequence (P19491 22-883 isoform P19491-2 limits assumed): as above
T2 sequence (P42263 29-894 isoform P42263-2 limits assumed): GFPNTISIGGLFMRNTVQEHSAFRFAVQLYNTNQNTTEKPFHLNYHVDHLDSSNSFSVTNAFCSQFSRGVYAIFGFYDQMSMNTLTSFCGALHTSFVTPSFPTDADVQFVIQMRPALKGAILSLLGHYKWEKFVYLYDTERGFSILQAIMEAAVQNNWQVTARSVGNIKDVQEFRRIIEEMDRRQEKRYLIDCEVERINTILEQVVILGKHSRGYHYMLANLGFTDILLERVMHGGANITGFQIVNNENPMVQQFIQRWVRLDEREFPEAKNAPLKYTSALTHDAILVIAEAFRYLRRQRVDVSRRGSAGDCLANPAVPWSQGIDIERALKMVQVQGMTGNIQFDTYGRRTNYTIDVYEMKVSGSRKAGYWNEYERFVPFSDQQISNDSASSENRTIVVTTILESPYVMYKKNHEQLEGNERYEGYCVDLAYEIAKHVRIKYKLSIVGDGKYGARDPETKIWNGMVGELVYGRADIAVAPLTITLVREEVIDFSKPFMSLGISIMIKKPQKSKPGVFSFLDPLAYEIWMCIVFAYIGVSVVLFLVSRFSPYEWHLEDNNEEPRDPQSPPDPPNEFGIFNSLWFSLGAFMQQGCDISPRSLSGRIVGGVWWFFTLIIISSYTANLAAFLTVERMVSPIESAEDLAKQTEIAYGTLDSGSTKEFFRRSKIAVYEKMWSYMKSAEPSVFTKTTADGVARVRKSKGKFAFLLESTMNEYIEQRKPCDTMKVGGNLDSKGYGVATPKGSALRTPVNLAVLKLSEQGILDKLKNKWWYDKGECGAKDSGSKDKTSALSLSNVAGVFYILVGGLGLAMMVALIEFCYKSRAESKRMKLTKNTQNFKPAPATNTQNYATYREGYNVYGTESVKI
Type: cell-based
Excerpt: as §1, §2, §3, §4, §5

Amplitude (peak whole-cell current in presence of compound) [pA] | SMILES
101±10 | COc1cc(NC(=O)c2c(-c3c(Cl)cccc3Cl)noc2C)cc(OC)c1 [CIC-3, 3-(2,6-dichlorophenyl)-N-(3,5-dimethoxyphenyl)-5-methylisoxazole-4-carboxamide]

Same assay, conditions: 16 µM compound, mean ± SD, n = 10

A/AI (amplitude ratio, glutamate alone / with compound) | SMILES
5.50±0.26 | COc1cc(NC(=O)c2c(-c3c(Cl)cccc3Cl)noc2C)cc(OC)c1 [CIC-3, 3-(2,6-dichlorophenyl)-N-(3,5-dimethoxyphenyl)-5-methylisoxazole-4-carboxamide]

Same assay, conditions: 10 mM glutamate for 1 ms, with compound, mean ± SD

t deact (weighted deactivation time constant) [ms] | SMILES
6.2 ± 0.3 | COc1cc(NC(=O)c2c(-c3c(Cl)cccc3Cl)noc2C)cc(OC)c1 [CIC-3, 3-(2,6-dichlorophenyl)-N-(3,5-dimethoxyphenyl)-5-methylisoxazole-4-carboxamide]

Same assay, conditions: 10 mM glutamate for 500 ms, with compound, mean ± SD

SMILES | t des (weighted desensitization time constant) [ms]
COc1cc(NC(=O)c2c(-c3c(Cl)cccc3Cl)noc2C)cc(OC)c1 [CIC-3, 3-(2,6-dichlorophenyl)-N-(3,5-dimethoxyphenyl)-5-methylisoxazole-4-carboxamide] | 0.9 ± 0.1

Same assay, conditions: concentration–response fit, read-out: Log IC50 (converted)

IC50 [µM] | SMILES
4.9 | COc1cc(NC(=O)c2c(-c3c(Cl)cccc3Cl)noc2C)cc(OC)c1 [CIC-3, 3-(2,6-dichlorophenyl)-N-(3,5-dimethoxyphenyl)-5-methylisoxazole-4-carboxamide]

Same assay, conditions: glutamate alone after the compound, mean ± SD, n = 10

Amplitude, applying glutamate alone after compound [pA] | SMILES
542±66 | COc1cc(NC(=O)c2c(-c3c(Cl)cccc3Cl)noc2C)cc(OC)c1 [CIC-3, 3-(2,6-dichlorophenyl)-N-(3,5-dimethoxyphenyl)-5-methylisoxazole-4-carboxamide]

Same assay, conditions: inhibition of whole-cell peak current, concentration–response, Hill fit, read-out: IC50

IC50 [µM] | SMILES
4.92 | COc1cc(NC(=O)c2c(-c3c(Cl)cccc3Cl)noc2C)cc(OC)c1 [CIC-3, 3-(2,6-dichlorophenyl)-N-(3,5-dimethoxyphenyl)-5-methylisoxazole-4-carboxamide]

Same assay, conditions: versus glutamate alone, one-way ANOVA

SMILES | Effect on deactivation kinetics (τdeac), in words | Effect on desensitization kinetics (τdes), in words
COc1cc(NC(=O)c2c(-c3c(Cl)cccc3Cl)noc2C)cc(OC)c1 [CIC-3, 3-(2,6-dichlorophenyl)-N-(3,5-dimethoxyphenyl)-5-methylisoxazole-4-carboxamide] | statistically significant prolongation of τdeac | significantly accelerated desensitization
